Patent publication US5601800A, “New multifunctional ligands for potential use in the design therapeutic or diagnostic radiopharmaceutical imaging agents” (Curators of the University of Missouri, priority 1994, dated 1997)

Test: water solubility
Type: physicochemical

- solubility in water: soluble in water
Compound: CCCCP(=N)(CCCC)CCCC [tributylphosphinimine]
